PubChem BioAssay (NCI)
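Method: 48-hour compound exposure of cells in 96-well plates, five concentrations, linear interpolation of endpoints. Here, GI50 denotes the concentration required for 50% inhibition of growth. TGI: concentration producing complete growth inhibition.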

Experiments:
Assay in all cases: NCI-60 cell line screen, 48 h
PC-3 prostate = test system: PC-3 prostate
MDA-MB-435 = test system: MDA-MB-435
SK-MEL-5 melanoma = test system: SK-MEL-5 melanoma
OVCAR-5 ovarian = test system: OVCAR-5 ovarian
ACHN renal = test system: ACHN renal
MCF7 breast = test system: MCF7 breast
MDA-MB-231 breast = test system: MDA-MB-231 breast
TK-10 renal = test system: TK-10 renal
CCRF-CEM leukemia = test system: CCRF-CEM leukemia
BT-549 breast = test system: BT-549 breast

Compound	GI50 (PC-3 prostate)	TGI (PC-3 prostate)	GI50 (MDA-MB-435)	TGI (MDA-MB-435)	GI50 (SK-MEL-5 melanoma)	TGI (SK-MEL-5 melanoma)	GI50 (OVCAR-5 ovarian)	TGI (OVCAR-5 ovarian)	GI50 (ACHN renal)	TGI (ACHN renal)	GI50 (MCF7 breast)	TGI (MCF7 breast)	GI50 (MDA-MB-231 breast)	TGI (MDA-MB-231 breast)	GI50 (TK-10 renal)	TGI (TK-10 renal)	GI50 (CCRF-CEM leukemia)	TGI (CCRF-CEM leukemia)	GI50 (BT-549 breast)	TGI (BT-549 breast)
[O-]c1ccccc1/C=N/C(/N=C/c1ccccc1[O-])c1ccccc1O.[O-]c1ccccc1/C=N/C(/N=C/c1ccccc1[O-])c1ccccc1O.[Zr+4]	50900 nM	> 100 µM	28200 nM	> 100 µM	22400 nM	> 100 µM	30 µM	> 100 µM	36.1 µM	> 100 µM	35900 nM	> 100 µM	58200 nM	> 100 µM	43.6 µM	> 100 µM	–	–	–	–
C=C1CC[C@@H]2[C@](C)(COC(C)=O)[C@H](OC(C)=O)CC[C@@]2(C)[C@@H]1CC(Nc1ccc(S(=O)(=O)Nc2ccc(Cl)nn2)cc1)C1=CCOC1=O (stereo partly specified)	2240 nM	5.25 µM	1400 nM	3.17 µM	1600 nM	3.13 µM	2.01 µM	4.16 µM	1.68 µM	3.32 µM	–	–	1900 nM	3.96 µM	2.13 µM	4.19 µM	465 nM	2.6 µM	1580 nM	3.14 µM
CCN1C(=O)N(CC)C2C1NN=c1s/c(=C\c3ccccn3)c(=O)n12 (stereo unspecified)	1790 nM	> 100 µM	–	–	2460 nM	> 100 µM	4.61 µM	> 100 µM	6.45 µM	> 100 µM	468 nM	> 100 µM	4050 nM	> 100 µM	40.7 µM	> 100 µM	1530 nM	> 100 µM	3990 nM	> 100 µM
Cc1nn(C)c(COc2ccc(N3CCN(S(=O)(=O)N(C)C)CC3)cc2)c1-c1cccc2c(CCCOc3cccc4ccccc34)c(C(=O)O)n(CCN3CCOCC3)c12	3270 nM	10.7 µM	3400 nM	12 µM	2440 nM	5.96 µM	3.96 µM	23.5 µM	4.03 µM	15.7 µM	2840 nM	11 µM	2260 nM	5.9 µM	3.47 µM	15.5 µM	4190 nM	> 100 µM	–	–
Cn1cc(-c2csc(-c3cn(CCCN4CCCCC4)c4ccccc34)n2)c2cccnc21	1740 nM	3.3 µM	1870 nM	3.47 µM	1820 nM	3.26 µM	1.63 µM	3.13 µM	1.63 µM	3.01 µM	1650 nM	3.29 µM	1770 nM	3.32 µM	1.6 µM	2.96 µM	–	–	1560 nM	2.94 µM
O=C(Nc1ccc(Oc2cccc(F)c2)c(Cl)c1)c1cnccn1	–	–	149 nM	0.683 µM	1790 nM	> 50 µM	4.27 µM	> 50 µM	3.3 µM	> 50 µM	413 nM	> 50 µM	3280 nM	> 50 µM	3.75 µM	> 50 µM	1300 nM	> 50 µM	2180 nM	> 50 µM
